Data taken from the supplement of paper PMC11208160.

Assay: recombinant barcode read abundance after kanamycin selection (control-corrected) (log10(CPM+1)); higher = more efficient recombination; sequences stand for … in AGTGCAGAGAAAATCGGCCAGTTTTCTCTGCCTGCAGTCCGCATGCCGT…AGATTTATGCAGCGGACTGCCTTTCTCCCAAAGTGATAAACCGGACAGTATCATGGACCGGTTTTCCCGGTAATCCGTATTTGCAAGGTTGGTTTCACT; site = the 11-nt target
Procedure, shortened: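 In a pooled screen in E. coli, targets were paired with target-binding loops of the IS621 bridge RNA. Each oligo carried a promoter, a target, a barcode and the first 104 bridge RNA bases driven by J23119, and was Gibson-cloned into a vector holding the remaining 73 bp and a T7-inducible recombinase before co-electroporation with a donor plasmid. Duplicate platings went onto chloramphenicol/ampicillin LB agar as the control or onto chloramphenicol/ampicillin/kanamycin with 0.1 mM IPTG. Recombination efficiency is the averaged, control-corrected count per million of barcodes at recombinant junctions, given as log10(CPM+1).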
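Further: IS621 recombinase and bridge RNA in Escherichia coli cells.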

CCGCATGCTTGGGTTCTAACCTGTTGCCT (site CCGTATGCTAG)
recombinant barcode read abundance (log10): 0.0765

CCGCCTCCTTGGGTTCTAACCTGTTGCAT (site CCGCCTCCTAT)
recombinant barcode read abundance (log10): 0.0412

CCGCCTCCTTGGGTTCTAACCTGTTGCAT (site CGTCCTCCTAT)
recombinant barcode read abundance (log10): 0.26

CCGCGGACTTGGGTTCTAACCTGTTGCTA (site CCGCGGACTTA)
recombinant barcode read abundance (log10): 0.989

CCGCGGACTTGGGTTCTAACCTGTTGCTA (site TAAAACCCTAT)
recombinant barcode read abundance (log10): 0.0107

CCGCGGACTTGGGTTCTAACCTGTTGCTT (site CCGCAGACTAA)
recombinant barcode read abundance (log10): 0.106

CCGCGGACTTGGGTTCTAACCTGTTGCTT (site CCGCGGACTAA)
recombinant barcode read abundance (log10): 0.578

CCGGCCACTTGGGTTCTAACCTGTTGCCT (site CAGGCCACTAG)
recombinant barcode read abundance (log10): 0.359

CCGGCCACTTGGGTTCTAACCTGTTGCCT (site CCGGCCACTAG)
recombinant barcode read abundance (log10): 1.82

CCGGCCACTTGGGTTCTAACCTGTTGCCT (site CGGGCCACTAG)
recombinant barcode read abundance (log10): 0.164

CCGGCCACTTGGGTTCTAACCTGTTGCCT (site CTGGCCACTAG)
recombinant barcode read abundance (log10): 0.155

CCGGGATCTTGGGTTCTAACCTGTTGCCT (site ACGGGATCTAG)
recombinant barcode read abundance (log10): 0.323

CCGGGATCTTGGGTTCTAACCTGTTGCCT (site CCGGGATCTAG)
recombinant barcode read abundance (log10): 1.22

CCGGGATCTTGGGTTCTAACCTGTTGCCT (site GCGGGATCTAG)
recombinant barcode read abundance (log10): 0.161

CCGGGATCTTGGGTTCTAACCTGTTGCCT (site TCGGGATCTAG)
recombinant barcode read abundance (log10): 0.231

CCGGGTACTTGGGTTCTAACCTGTTGCCG (site AGCAACCCTTT)
recombinant barcode read abundance (log10): 0.0127

CCGGGTACTTGGGTTCTAACCTGTTGCCG (site CCGGGTACTCG)
recombinant barcode read abundance (log10): 1.66

CCGGTGACTTGGGTTCTAACCTGTTGCCT (site ACGGTGACTAG)
recombinant barcode read abundance (log10): 0.0889

CCGGTGACTTGGGTTCTAACCTGTTGCCT (site CCGGTGACTAG)
recombinant barcode read abundance (log10): 0.743

CCGGTGACTTGGGTTCTAACCTGTTGCCT (site GCGGTGACTAG)
recombinant barcode read abundance (log10): 0.146

CCGGTGACTTGGGTTCTAACCTGTTGCCT (site TCGGTGACTAG)
recombinant barcode read abundance (log10): 0.0596

CCGGTTGCTTGGGTTCTAACCTGTTGCCT (site CCGGATTCTAG)
recombinant barcode read abundance (log10): 0.0357

CCGGTTGCTTGGGTTCTAACCTGTTGCCT (site CCGGTTGCTAG)
recombinant barcode read abundance (log10): 2.76

CCGTCTACTTGGGTTCTAACCTGTTGCTT (site CCGTCTACTAA)
recombinant barcode read abundance (log10): 0.107

CCGTCTACTTGGGTTCTAACCTGTTGCTT (site CCGTCTACTCA)
recombinant barcode read abundance (log10): 0.457

CCGTCTACTTGGGTTCTAACCTGTTGCTT (site CCGTCTACTGA)
recombinant barcode read abundance (log10): 0.0444

CCGTCTACTTGGGTTCTAACCTGTTGCTT (site CCGTCTACTTA)
recombinant barcode read abundance (log10): 0.201

CCGTGAACTTGGGTTCTAACCTGTTGCCT (site CAGTGAACTAG)
recombinant barcode read abundance (log10): 0.0153

CCGTGAACTTGGGTTCTAACCTGTTGCCT (site CCGTGAACTAG)
recombinant barcode read abundance (log10): 0.275

CCGTGAACTTGGGTTCTAACCTGTTGCCT (site CGGTGAACTAG)
recombinant barcode read abundance (log10): 0.0382

CCGTGAACTTGGGTTCTAACCTGTTGCCT (site CTGTGAACTAG)
recombinant barcode read abundance (log10): 0.163

CCGTGGACTTGGGTTCTAACCTGTTGCCA (site CAGGGGACTTG)
recombinant barcode read abundance (log10): 0.111
